Data published in patent publication EP0160578A1, “1,8-Naphthyridine derivatives” (DAIICHI SEIYAKU CO., LTD., priority 1984, dated 1985).
Converted amounts (≈) assume the structure as drawn.

What was measured:
Experiment in all cases: Antibacterial activity, dilution method in Muller-Hinton Bouillon (MIC)
Type in all cases: cell-based
[1] = test system: E. coli, NIHJ; details: Escherichia coli, 10^6/ml bacteria, 37°C, 18 hours, read-out: Minimal Inhibitory Concentration (MIC)
Method: (§1) The antibacterial activity of the compounds of the present invention was determined by the standard method of the Japan Society of Chemotherapy: according to the dilution method in Muller-Hinton Bouillon, 10^6/ml of bacteria were seeded and incubated at 37°C for 18 hours.

[2] = test system: Ps. aeruginosa, 2063; details: Pseudomonas aeruginosa, 10^6/ml bacteria, 37°C, 18 hours, read-out: Minimal Inhibitory Concentration (MIC)
Method: as §1

[3] = test system: Pr. mirabilis, 1287; details: Proteus mirabilis, 10^6/ml bacteria, 37°C, 18 hours, read-out: Minimal Inhibitory Concentration (MIC)
Method: as §1

[4] = test system: S. epidermis, 56556; details: 10^6/ml bacteria, 37°C, 18 hours, read-out: Minimal Inhibitory Concentration (MIC)
Method: as §1

[5] = test system: Pr. vulgaris, 3167; details: Proteus vulgaris, 10^6/ml bacteria, 37°C, 18 hours, read-out: Minimal Inhibitory Concentration (MIC)
Method: as §1

[6] = test system: Ps. aeruginosa, 2131; details: Pseudomonas aeruginosa, 10^6/ml bacteria, 37°C, 18 hours, read-out: Minimal Inhibitory Concentration (MIC)
Method: as §1

[7] = test system: Ps. aeruginosa, 2128; details: Pseudomonas aeruginosa, 10^6/ml bacteria, 37°C, 18 hours, read-out: Minimal Inhibitory Concentration (MIC)
Method: as §1

[8] = test system: S. aureus, Smith; details: Staphylococcus aureus, 10^6/ml bacteria, 37°C, 18 hours, read-out: Minimal Inhibitory Concentration (MIC)
Method: as §1

[9] = test system: Sh. flexneri, 2a5503; details: Shigella flexneri, 10^6/ml bacteria, 37°C, 18 hours, read-out: Minimal Inhibitory Concentration (MIC)
Method: as §1

[10] = test system: Ps. maltophilia, IID1275; details: Stenotrophomonas maltophilia, 10^6/ml bacteria, 37°C, 18 hours, read-out: Minimal Inhibitory Concentration (MIC)
Method: as §1

[11] = test system: Ps. cepacia, IID1340; details: Burkholderia cepacia, 10^6/ml bacteria, 37°C, 18 hours, read-out: Minimal Inhibitory Concentration (MIC)
Method: as §1

[12] = test system: Ser. marcescens, 13001; details: Serratia marcescens, 10^6/ml bacteria, 37°C, 18 hours, read-out: Minimal Inhibitory Concentration (MIC)
Method: as §1

[13] = test system: Str. pyogenes, G-36; details: Streptococcus pyogenes, G36, 10^6/ml bacteria, 37°C, 18 hours, read-out: Minimal Inhibitory Concentration (MIC)
Method: as §1

[14] = test system: Str. faecalis, ATCC19433; details: Enterococcus faecalis, 10^6/ml bacteria, 37°C, 18 hours, read-out: Minimal Inhibitory Concentration (MIC)
Method: as §1

Compound	MIC [1] [µg/mL]	MIC [2] [µg/mL]	MIC [3] [µg/mL]	MIC [4] [µg/mL]	MIC [5] [µg/mL]	MIC [6] [µg/mL]	MIC [7] [µg/mL]	MIC [8] [µg/mL]	MIC [9] [µg/mL]	MIC [10] [µg/mL]	MIC [11] [µg/mL]	MIC [12] [µg/mL]	MIC [13] [µg/mL]	MIC [14] [µg/mL]
CCn1cc(C(=O)O)c(=O)c2cc(F)c(N3CCNCC3)nc21 [Control Compound, 1-ethyl-6-fluoro-7-(1-piperazinyl)-1,4-dihydro-4-oxo-1,8-naphthyridine-3-carboxylic acid, reference compound]	0.2 (≈ 0.624 µM)	0.78 (≈ 2.44 µM)	0.2 (≈ 0.624 µM)	0.78 (≈ 2.44 µM)	0.2 (≈ 0.624 µM)	0.2 (≈ 0.624 µM)	0.78 (≈ 2.44 µM)	0.78 (≈ 2.44 µM)	0.2 (≈ 0.624 µM)	0.78 (≈ 2.44 µM)	50 (≈ 156 µM)	0.2 (≈ 0.624 µM)	25 (≈ 78 µM)	6.25 (≈ 19.5 µM)
O=C(O)c1cn(C2CC2)c2nc(N3CCNCC3)c(F)cc2c1=O [No. 1, 1-cyclopropyl-6-fluoro-7-(1-piperazinyl)-1,4-dihydro-4-oxo-1,8-naphthyridine-3-carboxylic acid]	≤ 0.05	0.1 (≈ 0.301 µM)	≤ 0.05	0.39 (≈ 1.17 µM)	≤ 0.05	0.1 (≈ 0.301 µM)	0.1 (≈ 0.301 µM)	0.39 (≈ 1.17 µM)	≤ 0.05	0.78 (≈ 2.35 µM)	3.13 (≈ 9.42 µM)	≤ 0.05	6.25 (≈ 18.8 µM)	1.56 (≈ 4.69 µM)
NC1CCN(c2nc3c(cc2F)c(=O)c(C(=O)O)cn3C2CC2)C1 (stereo not shown) [No. 2, 1-cyclopropyl-6-fluoro-7-(3-amino-1-pyrrolidinyl)-1,4-dihydro-4-oxo-1,8--naphthyridine-3-carboxylic acid]	≤ 0.05	≤ 0.05	≤ 0.05	0.1 (≈ 0.301 µM)	≤ 0.05	0.1 (≈ 0.301 µM)	≤ 0.05	0.1 (≈ 0.301 µM)	≤ 0.05	0.39 (≈ 1.17 µM)	0.39 (≈ 1.17 µM)	≤ 0.05	0.78 (≈ 2.35 µM)	0.39 (≈ 1.17 µM)
O=C(O)c1cn(C2CC2)c2nc(N3CCC(O)C3)c(F)cc2c1=O (stereo not drawn) [No. 3, l-cyclopropyl-6-fluoro-7-(3-hydroxy-l-pyrrolidinyl)-1,4-dihydro-4-oxo-1,8-naphthyridine-3-carboxylic acid]	≤ 0.05	0.39 (≈ 1.17 µM)	≤ 0.05	0.1 (≈ 0.3 µM)	≤ 0.05	0.78 (≈ 2.34 µM)	0.39 (≈ 1.17 µM)	≤ 0.05	≤ 0.05	0.39 (≈ 1.17 µM)	0.39 (≈ 1.17 µM)	0.1 (≈ 0.3 µM)	1.56 (≈ 4.68 µM)	0.39 (≈ 1.17 µM)
CN1CCN(c2nc3c(cc2F)c(=O)c(C(=O)O)cn3C2CC2)CC1 [No. 4, 1-cyclopropyl-6-fluoro-7-(4-methyl-1-piperazinyl)-1,4-dihydro-4-oxo-1,8-naphthyridine-3-carboxylic acid]	≤ 0.05	0.39 (≈ 1.13 µM)	≤ 0.05	0.39 (≈ 1.13 µM)	≤ 0.05	0.39 (≈ 1.13 µM)	0.2 (≈ 0.577 µM)	0.2 (≈ 0.577 µM)	≤ 0.05	0.39 (≈ 1.13 µM)	1.56 (≈ 4.5 µM)	≤ 0.05	6.25 (≈ 18 µM)	3.13 (≈ 9.04 µM)
O=C(O)c1cn(C2CC2)c2nc(N3CCCNCC3)c(F)cc2c1=O [No. 5, 1-cyclopropyl-6-fluoro-7-(1-homopiperazinyl)-1,4-dihydro-4-oxo-1,8-naphthyridine-3-carboxylic acid]	≤ 0.05	0.2 (≈ 0.577 µM)	0.1 (≈ 0.289 µM)	0.39 (≈ 1.13 µM)	≤ 0.05	0.2 (≈ 0.577 µM)	0.1 (≈ 0.289 µM)	0.39 (≈ 1.13 µM)	≤ 0.05	1.56 (≈ 4.5 µM)	0.78 (≈ 2.25 µM)	0.1 (≈ 0.289 µM)	12.5 (≈ 36.1 µM)	6.25 (≈ 18 µM)
CN1CCCN(c2nc3c(cc2F)c(=O)c(C(=O)O)cn3C2CC2)CC1 [No. 6, 1-cyclopropyl-6-fluoro-7-(N-methyl-1-homopiperazinyl)-1,4-dihydro-4-oxo-1,8-naphthyridine-3-carboxylic acid]	≤ 0.05	0.78 (≈ 2.16 µM)	0.2 (≈ 0.555 µM)	0.39 (≈ 1.08 µM)	0.1 (≈ 0.277 µM)	0.78 (≈ 2.16 µM)	0.39 (≈ 1.08 µM)	0.39 (≈ 1.08 µM)	0.1 (≈ 0.277 µM)	0.39 (≈ 1.08 µM)	0.78 (≈ 2.16 µM)	0.2 (≈ 0.555 µM)	6.25 (≈ 17.3 µM)	6.25 (≈ 17.3 µM)
CC1CN(c2nc3c(cc2F)c(=O)c(C(=O)O)cn3C2CC2)CCN1 (stereo not shown) [No. 7, 1-cyclopropyl-6-fluoro-7-(3-methyl-1-piperazinyl)-1,4-dihydro-4-oxo-1,8--naphthyridine-3-carboxylic acid]	≤ 0.05	0.2 (≈ 0.577 µM)	0.1 (≈ 0.289 µM)	0.78 (≈ 2.25 µM)	≤ 0.05	0.1 (≈ 0.289 µM)	0.2 (≈ 0.577 µM)	0.39 (≈ 1.13 µM)	≤ 0.05	0.39 (≈ 1.13 µM)	0.39 (≈ 1.13 µM)	≤ 0.05	1.56 (≈ 4.5 µM)	3.13 (≈ 9.04 µM)
